Laboratory results reported in patent US10059655B2, “Lipids and lipid compositions for the delivery of active agents” (priority 2013, dated 2018).

Assays:
[1] = Measurement of siRNA encapsulation (SYBR Gold fluorescence); format: physicochemical; settings: FVII siRNA in LNP
Description: The lipid nanoparticles (LNPs) were formed by mixing equal volumes of lipids dissolved in alcohol with siRNA dissolved in a citrate buffer by an impinging jet process. The lipid solution contains a cationic lipid compound of the invention, a helper lipid (cholesterol), an optional neutral lipid (DSPC) and a stealth lipid (S010, S024, S027, or S031) at a concentration of 8-16 mg/mL with a target of 12 mg/mL in an alcohol. The siRNA to total lipid ratio is approximately 0.05 (wt/wt). Where a LNP formulation contains four lipid components, the molar ratios of the lipids ranges from 20 to 70 mole percent for the cationic lipid with a target of 40-60, the mole percent of helper lipid ranges from 20 to 70 with a target of 30 to 50, the mole percent of neutral lipid ranges from 0-30, the mole percent of PEG lipid has a range from 1 to 6 with a target of 2 to 5. The concentration of siRNA solution ranges from 0.7 to 1.0 mg/mL with a target of 0.8 to 0.9 mg/mL in a sodium citrate: sodium chloride buffer pH 4-6, with a target of 4.5-5.5. The LNPs are formed by mixing equal volumes of lipid solution in ethanol with siRNA dissolved in a citrate buffer by an impinging jet process through a mixing device with ID ranging from 0.25 to 2.0 mm at a flow rate from 10 to 640 mL/min. The mixed LNP solution is held at room temperature for 0-24 hrs prior to a dilution step. The solution is then concentrated and diafiltered with suitable buffer by ultrafiltration process using membranes with a MW cutoff from 30 to 500 KD. The final product is sterile filtered and stored at 4° C.
SYBR Gold flourescence reagent is used for the determination of siRNA encapsulation in the DLP's. DLP's with and without triton x-100 are used to determine the free siRNA and total siRNA amounts. DLP's samples with and without triton X-100 were excited at 485 nm and flourescence emission is measured at 530 nm. Encapsulation efficiency is calculated based on the following formula: Encapsulation efficiency: [(free siRNA concentration−total siRNA concentration)/(total siRNA concentration)]×100% Encapsulation Data

[2] = Measurement of mRNA encapsulation in lipid nanoparticles (Quant-iT Ribogreen); format: physicochemical; settings: Leptin mRNA in LNP
How it was run: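 LNPs were formed by T-junction mixing of ethanolic lipids (cationic lipid:DSPC:cholesterol:PEG lipid 40:10:38:2) with mRNA in citrate pH 5.8–6.0 at N:P 4:1, then dialysed against PBS overnight at 4 °C. RiboGreen fluorescence (ex 480/em 520 nm) was read on samples diluted 400–2,000-fold in TE with or without 0.75% Triton X-100 and quantified against standard curves. Encapsulation % = (Triton − buffer concentration)/Triton concentration.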

Row | SMILES | % encapsulation siRNA FVII [1] [%] | % encapsulation mRNA Leptin [2] [%]
1 | CCCCC/C=C\C/C=C\CCCCCCCC(=O)OCC(COC(=O)CCCC(CCCCCCC)CCCCCCC)COC(=O)OCCCN(CC)CC (stereo not shown) [Example 25, (9Z,12Z)-3-(((3-(diethylamino)propoxy)carbonyl)oxy)-2-(((5-heptyldodecanoyl)oxy)methyl)propyl octadeca-9,12-dienoate] | 88.7 | 95.3
2 | CCCCC/C=C\C/C=C\CCCCCCCC(=O)OCC(COC(=O)OCCN(C)C)COC(=O)C(OCCCCCCC)OCCCCCCC (stereo not shown) [Example 26, (9Z,12Z)-3-(2,2-bis(heptyloxy)acetoxy)-2-((((2-(dimethylamino)ethoxy)carbonyl)oxy)methyl)propyl octadeca-9,12-dienoate] | 80.0 | 96.9
